Experimental data from patent US20240174618A1, “SUBSTITUTED (2-HETEROARYLOXYPHENYL)SULFONATES, SALTS THEREOF AND THEIR USE AS HERBICIDAL AGENTS” (Bayer Aktiengesellschaft, priority 2021, published 2024).

Assays:
Format in all cases: in vivo
[1] = test system: Glycine max (GLXMA); assay: D. Pre-emergence effect on useful plants, GLXMA; details: useful plant, application rate 80 g/ha
From the text: (§1) Seeds of monocotyledonous and dicotyledonous weed plants and crop plants were placed in plastic or organic planting pots and covered with soil. The compounds of the invention, formulated in the form of wettable powders (WP) or as emulsion concentrates (EC), were then applied to the surface of the covering soil as aqueous suspension or emulsion with addition of 0.5% additive at a water application rate equivalent to 600 l/ha (converted). After the treatment, the pots were placed in a greenhouse and kept under good growth conditions for the test plants. After about 3 weeks, the efficacy of the preparations was scored visually in comparison with untreated controls as percentages. For example, • 100% efficacy=plants have died, • 0% efficacy=like untreated control plants.
(§2) Tables D1a to D5b below show the effects of selected compounds of the general formula (I) according to table 1 on various useful plants at an application rate corresponding to 320 g/ha or less, which were obtained by the experimental procedure mentioned above.

[2] = test system: Veronica persica (VERPE); assay: E. Herbicidal post-emergence efficacy, VERPE
Experimental: (§3) Seeds of monocotyledonous and dicotyledonous weeds and crop plants were placed in sandy loam in plastic or organic planting pots, covered with soil and cultivated in a greenhouse under controlled growth conditions. 2 to 3 weeks after sowing, the test plants were treated at the one-leaf stage. The compounds of the invention, formulated in the form of wettable powders (WP) or as emulsion concentrates (EC), were then sprayed onto the green parts of the plants as aqueous suspension or emulsion with addition of 0.5% additive at a water application rate of 600 l/ha (converted). After the test plants had been kept in the greenhouse under optimum growth conditions for about 3 weeks, the activity of the preparations was rated visually in comparison to untreated controls.
(§4) For example, • 100% efficacy=plants have died, • 0% action=like untreated control plants.
(§5) Tables E1a to E12b below show the effects of selected compounds of the general formula (I) according to table 1 on various harmful plants at an application rate corresponding to 320 g/ha or less, which were obtained by the experimental procedure mentioned above.

[3] = test system: Amaranthus retroflexus (AMARE); assay: E. Herbicidal post-emergence efficacy, AMARE
Experimental: as §3, §4, §5

[4] = test system: Lolium rigidum (LOLRI); assay: C. Herbicidal pre-emergence efficacy, LOLRI; details: 320 g/ha, scored after about 3 weeks
From the text: as §1
(§6) Tables C1a to C14b below show the effects of selected compounds of the general formula (I) according to table 1 on various harmful plants at an application rate corresponding to 320 g/ha or less, which were obtained by the experimental procedure mentioned above.

[5] = test system: Abutilon theophrasti (ABUTH); assay: E. Herbicidal post-emergence efficacy, ABUTH; details: application rate 320 g/ha
Experimental: as §3, §4, §5

[6] = test system: Zea mays (ZEAMX); assay: D. Pre-emergence effect on useful plants, ZEAMX; details: useful plant, application rate 80 g/ha
From the text: as §1, §2

[7] = test system: Alopecurus myosuroides (ALOMY); assay: C. Herbicidal pre-emergence efficacy, ALOMY; details: 320 g/ha, scored after about 3 weeks
From the text: as §1, §6

[8] = test system: Kochia scoparia (KCHSC); assay: E. Herbicidal post-emergence efficacy, KCHSC
Experimental: as §3, §4, §5

[9] = test system: Viola tricolor (VIOTR); assay: E. Herbicidal post-emergence efficacy, VIOTR
Experimental: as §3, §4, §5

[10] = test system: Veronica persica (VERPE); assay: C. Herbicidal pre-emergence efficacy, VERPE; details: 320 g/ha, scored after about 3 weeks
From the text: as §1, §6

[11] = test system: Abutilon theophrasti (ABUTH); assay: C. Herbicidal pre-emergence efficacy, ABUTH; details: scored after about 3 weeks
From the text: as §1, §6

[12] = test system: Echinochloa crus-galli (ECHCG); assay: E. Herbicidal post-emergence efficacy, ECHCG; details: application rate 320 g/ha
Experimental: as §3, §4, §5

[13] = test system: Echinochloa crus-galli (ECHCG); assay: C. Herbicidal pre-emergence efficacy, ECHCG; details: 320 g/ha, scored after about 3 weeks
From the text: as §1, §6

[14] = test system: Zea mays (ZEAMX); assay: F. Post-emergence effect on useful plants, ZEAMX; details: useful plant, application rate 80 g/ha
Experimental: as §3, §4
(§7) Tables F1a to F4 below show the effects of selected compounds of the general formula (I) according to table 1 on various useful plants at an application rate corresponding to 320 g/ha or less, which were obtained by the experimental procedure mentioned above.

[15] = test system: Kochia scoparia (KCHSC); assay: C. Herbicidal pre-emergence efficacy, KCHSC; details: application rate 320 g/ha
From the text: as §1, §6

[16] = test system: Setaria viridis (SETVI); assay: E. Herbicidal post-emergence efficacy, SETVI; details: application rate 320 g/ha
Experimental: as §3, §4, §5

[17] = test system: Viola tricolor (VIOTR); assay: C. Herbicidal pre-emergence efficacy, VIOTR
From the text: as §1, §6

[18] = test system: Pharbitis purpurea (PHBPU); assay: E. Herbicidal post-emergence efficacy, PHBPU
Experimental: as §3, §4, §5

[19] = test system: Triticum aestivum (TRZAS); assay: D. Pre-emergence effect on useful plants, TRZAS; details: useful plant, application rate 80 g/ha
From the text: as §1, §2

[20] = test system: Digitaria sanguinalis (DIGSA); assay: C. Herbicidal pre-emergence efficacy, DIGSA; details: 320 g/ha, scored after about 3 weeks
From the text: as §1, §6

[21] = test system: Amaranthus retroflexus (AMARE); assay: C. Herbicidal pre-emergence efficacy, AMARE; details: scored after about 3 weeks
From the text: as §1, §6

[22] = test system: Polygonum convolvulus (POLCO); assay: E. Herbicidal post-emergence efficacy, POLCO; details: application rate 320 g/ha
Experimental: as §3, §4, §5

[23] = test system: Setaria viridis (SETVI); assay: C. Herbicidal pre-emergence efficacy, SETVI; details: 320 g/ha, scored after about 3 weeks
From the text: as §1, §6

[24] = test system: Polygonum convolvulus (POLCO); assay: C. Herbicidal pre-emergence efficacy, POLCO; details: 320 g/ha, scored after about 3 weeks
From the text: as §1, §6

[25] = test system: Triticum aestivum (TRZAS); assay: F. Post-emergence effect on useful plants, TRZAS; details: useful plant
Experimental: as §3, §4, §7

Cc1cccc(Oc2ncc(Cl)cn2)c1OS(=O)(=O)CCC(F)=C(F)F [Example I-71]
10%: Pre-emergence efficacy against GLXMA in % [1]
80%: Post-emergence efficacy against VERPE in % ([2]; application rate 80 g/ha) | Pre-emergence efficacy against LOLRI [4] | Pre-emergence efficacy against ALOMY [7] | Pre-emergence efficacy against ABUTH ([11]; 80 g/ha) | Post-emergence efficacy against PHBPU in % ([18]; application rate 80 g/ha)
100%: Post-emergence efficacy against VERPE in % ([2]; application rate 320 g/ha) | Post-emergence efficacy against AMARE in % ([3]; application rate 320 g/ha) | Post-emergence efficacy against ABUTH in % [5] | Post-emergence efficacy against KCHSC in % ([8]; application rate 80 g/ha) | Post-emergence efficacy against KCHSC in % ([8]; application rate 320 g/ha) | Post-emergence efficacy against VIOTR in % ([9]; application rate 320 g/ha) | Pre-emergence efficacy against ABUTH ([11]; 320 g/ha) | Pre-emergence efficacy against ECHCG [13] | Pre-emergence efficacy against KCHSC in % [15] | Post-emergence efficacy against SETVI in % [16] | Pre-emergence efficacy against VIOTR in % ([17]; application rate 80 g/ha) | Pre-emergence efficacy against VIOTR in % ([17]; application rate 320 g/ha) | Pre-emergence efficacy against DIGSA [20] | Pre-emergence efficacy against AMARE ([21]; 80 g/ha) | Pre-emergence efficacy against AMARE ([21]; 320 g/ha) | Post-emergence efficacy against POLCO in % [22] | Pre-emergence efficacy against SETVI [23] | Pre-emergence efficacy against POLCO [24]
90%: Post-emergence efficacy against AMARE in % ([3]; application rate 80 g/ha) | Post-emergence efficacy against VIOTR in % ([9]; application rate 80 g/ha) | Pre-emergence efficacy against VERPE [10] | Post-emergence efficacy against ECHCG in % [12] | Post-emergence efficacy against PHBPU in % ([18]; application rate 320 g/ha)
0%: Pre-emergence efficacy against ZEAMX in % [6] | Post-emergence efficacy against ZEAMX in % [14] | Pre-emergence efficacy against TRZAS in % [19] | Post-emergence efficacy against TRZAS in % ([25]; application rate 80 g/ha) | Post-emergence efficacy against TRZAS in % ([25]; application rate 320 g/ha)
